From PubChem BioAssay AID256 (DTP/NCI, 2004)
Toxic doses and inconclusive results are not listed. How the source made its calls: active means survival T/C of 150% or more; inactive means T/C below 125% in these data.

System: CD2F1 mice, L1210 leukemia ip, survival T/C
Test: NCI In Vivo Anticancer Drug Screen. Data for tumor model L1210 Leukemia (intraperitoneal) in CD2F1 (CDF1) mice
Details: higher = longer survival
Procedure, shortened: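 Each value reflects a quotient of treated over vehicle control outcomes in mice with a transplanted tumor.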

[1] = endpoint: mean survival time, dose: 100.0 mg/kg/injection, schedule: Q04DX002 (ip), vehicle: saline with Tween-80
[2] = endpoint: mean survival time, dose: 200.0 mg/kg/injection, schedule: Q04DX002 (ip), vehicle: saline with Tween-80
[3] = endpoint: mean survival time, dose: 50.0 mg/kg/injection, schedule: Q04DX002 (ip), vehicle: saline with Tween-80
[4] = endpoint: mean survival time, dose: 100.0 mg/kg/injection, schedule: Q01DX001 (ip), vehicle: saline
[5] = endpoint: mean survival time, dose: 100.0 mg/kg/injection, schedule: Q04DX003 (ip), vehicle: saline
[6] = endpoint: mean survival time, dose: 200.0 mg/kg/injection, schedule: Q01DX001 (ip), vehicle: saline
[7] = endpoint: mean survival time, dose: 200.0 mg/kg/injection, schedule: Q04DX003 (ip), vehicle: saline
[8] = endpoint: mean survival time, dose: 400.0 mg/kg/injection, schedule: Q01DX001 (ip), vehicle: saline
[9] = endpoint: mean survival time, dose: 400.0 mg/kg/injection, schedule: Q04DX003 (ip), vehicle: saline
[10] = endpoint: mean survival time, dose: 100.0 mg/kg/injection, schedule: Q01DX009 (ip), vehicle: saline with Tween-80
[11] = endpoint: mean survival time, dose: 100.0 mg/kg/injection, schedule: Q04DX003 (ip), vehicle: saline with Tween-80
[12] = endpoint: mean survival time, dose: 200.0 mg/kg/injection, schedule: Q01DX009 (ip), vehicle: saline with Tween-80
[13] = endpoint: mean survival time, dose: 200.0 mg/kg/injection, schedule: Q04DX003 (ip), vehicle: saline with Tween-80

Measured: T/C

O=c1[nH]c(=O)n(C2CC(O)C(CO)O2)cc1/C=N/O (configuration not stated)
inactive: endpoint: mean survival time, dose: 12.5 mg/kg/injection, schedule: Q01DX005 (ip), vehicle: distilled water + Tween-80 101 % of control | endpoint: mean survival time, dose: 25.0 mg/kg/injection, schedule: Q01DX005 (ip), vehicle: distilled water + Tween-80 103 % of control | endpoint: mean survival time, dose: 50.0 mg/kg/injection, schedule: Q01DX005 (ip), vehicle: distilled water + Tween-80 101 % of control | endpoint: mean survival time, dose: 100.0 mg/kg/injection, schedule: Q01DX005 (ip), vehicle: distilled water + Tween-80 98 % of control | endpoint: mean survival time, dose: 200.0 mg/kg/injection, schedule: Q01DX005 (ip), vehicle: distilled water + Tween-80 101 % of control

O=C(NC/C=C/Br)Oc1cccc2ccccc12
inactive: [1] 101 % of control | [2] 93 % of control | endpoint: mean survival time, dose: 400.0 mg/kg/injection, schedule: Q04DX002 (ip), vehicle: saline with Tween-80 101 % of control

CN(C)CC1CCCCN1 (configuration not stated)
inactive: endpoint: mean survival time, dose: 50.0 mg/kg/injection, schedule: Q01DX009 (ip), vehicle: saline 94 % of control | endpoint: mean survival time, dose: 100.0 mg/kg/injection, schedule: Q01DX009 (ip), vehicle: saline 94 % of control | endpoint: mean survival time, dose: 200.0 mg/kg/injection, schedule: Q01DX009 (ip), vehicle: saline 94 % of control

NC(=O)C(O)(c1ccc(Br)cc1)C(Cl)Cl (configuration not stated)
inactive: endpoint: mean survival time, dose: 28.5 mg/kg/injection, schedule: Q04DX002 (ip), vehicle: saline with Tween-80 97 % of control | [3] 107 % of control | endpoint: mean survival time, dose: 57.0 mg/kg/injection, schedule: Q04DX002 (ip), vehicle: saline with Tween-80 95 % of control | [1] 102 % of control | endpoint: mean survival time, dose: 114.0 mg/kg/injection, schedule: Q04DX002 (ip), vehicle: saline with Tween-80 98 % of control

COc1cc(CO)ccc1Oc1ccc(C)cc1
inactive: [4] 104 % of control | [5] 100 % of control | [6] 107 % of control | [7] 100 % of control | [8] 100 % of control | [9] 101 % of control

O=C1CC(=O)NC(=O)C1
inactive: endpoint: mean survival time, dose: 12.5 mg/kg/injection, schedule: Q01DX009 (ip), vehicle: water 95 % of control | endpoint: mean survival time, dose: 25.0 mg/kg/injection, schedule: Q01DX009 (ip), vehicle: water 92 % of control | endpoint: mean survival time, dose: 50.0 mg/kg/injection, schedule: Q01DX009 (ip), vehicle: water 94 % of control | endpoint: mean survival time, dose: 100.0 mg/kg/injection, schedule: Q01DX009 (ip), vehicle: water 92 % of control | endpoint: mean survival time, dose: 200.0 mg/kg/injection, schedule: Q01DX009 (ip), vehicle: water 94 % of control

c1ccc2c(c1)Cc1nc3ccccc3nc1-2
inactive: [10] 94 % of control | [11] 105 % of control | [12] 94 % of control | [13] 103 % of control | endpoint: mean survival time, dose: 400.0 mg/kg/injection, schedule: Q01DX009 (ip), vehicle: saline with Tween-80 97 % of control | endpoint: mean survival time, dose: 400.0 mg/kg/injection, schedule: Q04DX003 (ip), vehicle: saline with Tween-80 97 % of control

Cc1ccc(S(=O)(=O)Nc2ccccc2)c(CC(O)(c2ccccc2)c2ccccc2)c1
inactive: [11] 88 % of control | [13] 88 % of control

NC(=O)NC(=O)c1cccc([N+](=O)[O-])c1
inactive: [10] 104 % of control | [11] 97 % of control | [12] 97 % of control | [13] 94 % of control

CC(O)C(C)(C)CO (configuration not stated)
inactive: [5] 88 % of control | [7] 88 % of control | [9] 93 % of control

O=C(SCCNCCNC1CC2CCC1C2)c1ccccc1 (configuration not stated)
inactive: endpoint: mean survival time, dose: 9.4 mg/kg/injection, schedule: Q01DX009 (ip), vehicle: saline with Tween-80 98 % of control | endpoint: mean survival time, dose: 9.4 mg/kg/injection, schedule: Q04DX003 (ip), vehicle: saline with Tween-80 95 % of control | endpoint: mean survival time, dose: 18.8 mg/kg/injection, schedule: Q01DX001 (ip), vehicle: saline 97 % of control | endpoint: mean survival time, dose: 18.8 mg/kg/injection, schedule: Q01DX009 (ip), vehicle: saline with Tween-80 97 % of control | endpoint: mean survival time, dose: 18.8 mg/kg/injection, schedule: Q04DX003 (ip), vehicle: saline with Tween-80 92 % of control | endpoint: mean survival time, dose: 37.5 mg/kg/injection, schedule: Q01DX001 (ip), vehicle: saline 100 % of control | endpoint: mean survival time, dose: 37.5 mg/kg/injection, schedule: Q01DX009 (ip), vehicle: saline with Tween-80 97 % of control | endpoint: mean survival time, dose: 37.5 mg/kg/injection, schedule: Q04DX003 (ip), vehicle: saline with Tween-80 95 % of control

O=S1(=O)CC2(N3CCOCC3)CCCCC21 (configuration not stated)
inactive: [5] 100 % of control | [7] 102 % of control | [9] 104 % of control

CCCCC1=C(P(=O)(OCC)OCC)C(F)(F)C(F)(F)C1(F)F
inactive: endpoint: mean survival time, dose: 75.0 mg/kg/injection, schedule: Q01DX001 (ip), vehicle: other 98 % of control | endpoint: mean survival time, dose: 150.0 mg/kg/injection, schedule: Q01DX001 (ip), vehicle: other 86 % of control | endpoint: mean survival time, dose: 300.0 mg/kg/injection, schedule: Q01DX001 (ip), vehicle: other 100 % of control

[Cl][Pt][Cl].[NH-]C(CC(N)=O)C(=O)O (configuration not stated)
inactive: endpoint: median survival time, dose: 3.12 mg/kg/injection, schedule: Q04DX003 (ip), vehicle: water 109 % of control | endpoint: median survival time, dose: 6.25 mg/kg/injection, schedule: Q04DX003 (ip), vehicle: water 108 % of control | endpoint: median survival time, dose: 12.5 mg/kg/injection, schedule: Q04DX003 (ip), vehicle: water 101 % of control | endpoint: median survival time, dose: 25.0 mg/kg/injection, schedule: Q04DX003 (ip), vehicle: water 106 % of control | endpoint: median survival time, dose: 50.0 mg/kg/injection, schedule: Q04DX003 (ip), vehicle: water 118 % of control | endpoint: median survival time, dose: 100.0 mg/kg/injection, schedule: Q04DX003 (ip), vehicle: water 110 % of control

C/C(=C\c1ccc(Cl)c(Cl)c1)[N+](=O)[O-]
inactive: [4] 104 % of control | [6] 109 % of control | [8] 111 % of control

CCCCC(/C=N/N=C/C(CC)CCCC)CC (configuration not stated)
inactive: endpoint: mean survival time, dose: 6.25 mg/kg/injection, schedule: Q01DX005 (ip), vehicle: saline with Tween-80 92 % of control | endpoint: mean survival time, dose: 6.25 mg/kg/injection, schedule: Q01DX009 (ip), vehicle: saline with Tween-80 91 % of control | endpoint: mean survival time, dose: 6.25 mg/kg/injection, schedule: Q04DX002 (ip), vehicle: saline 98 % of control | endpoint: mean survival time, dose: 12.5 mg/kg/injection, schedule: Q01DX005 (ip), vehicle: saline with Tween-80 92 % of control | endpoint: mean survival time, dose: 12.5 mg/kg/injection, schedule: Q01DX009 (ip), vehicle: saline with Tween-80 91 % of control | endpoint: mean survival time, dose: 12.5 mg/kg/injection, schedule: Q04DX002 (ip), vehicle: saline 103 % of control | endpoint: mean survival time, dose: 25.0 mg/kg/injection, schedule: Q01DX005 (ip), vehicle: saline with Tween-80 89 % of control | endpoint: mean survival time, dose: 25.0 mg/kg/injection, schedule: Q01DX009 (ip), vehicle: saline with Tween-80 95 % of control | endpoint: mean survival time, dose: 25.0 mg/kg/injection, schedule: Q04DX002 (ip), vehicle: saline 103 % of control | endpoint: mean survival time, dose: 50.0 mg/kg/injection, schedule: Q01DX005 (ip), vehicle: saline with Tween-80 92 % of control | endpoint: mean survival time, dose: 50.0 mg/kg/injection, schedule: Q01DX009 (ip), vehicle: saline with Tween-80 91 % of control | [3] 95 % of control | endpoint: mean survival time, dose: 50.0 mg/kg/injection, schedule: Q04DX002 (ip), vehicle: saline 106 % of control | [2] 88 % of control

COC(=O)c1csc(C2OC(CO)C(O)C2O)n1 (configuration not stated)
inactive: endpoint: mean survival time, dose: 25.0 mg/kg/injection, schedule: Q01DX005 (ip), vehicle: water 107 % of control | endpoint: mean survival time, dose: 50.0 mg/kg/injection, schedule: Q01DX005 (ip), vehicle: water 103 % of control | endpoint: mean survival time, dose: 100.0 mg/kg/injection, schedule: Q01DX005 (ip), vehicle: water 101 % of control | endpoint: mean survival time, dose: 200.0 mg/kg/injection, schedule: Q01DX005 (ip), vehicle: water 101 % of control | endpoint: mean survival time, dose: 400.0 mg/kg/injection, schedule: Q01DX005 (ip), vehicle: water 102 % of control

C=CC[As](=O)(O)c1ccccc1Cl
inactive: endpoint: mean survival time, dose: 6.25 mg/kg/injection, schedule: Q04DX003 (ip), vehicle: saline with Tween-80 98 % of control | endpoint: mean survival time, dose: 12.5 mg/kg/injection, schedule: Q04DX003 (ip), vehicle: saline with Tween-80 105 % of control | endpoint: mean survival time, dose: 25.0 mg/kg/injection, schedule: Q04DX003 (ip), vehicle: saline with Tween-80 104 % of control
